One assay has as its target Rat whole blood (Rattus norvegicus, UniProt P15384). It is filed as cell-based.
The next assay concerns the target T1, human Kv1.6 (Homo sapiens, UniProt P17658).
T1 construct: expressed in transfected cells; host or cells: CHO
The assay can be described thus: cell-based.

Another assay concerns the target T2, human Kv1.1 (Homo sapiens, UniProt Q09470).
T2 construct: expressed in transfected cells; host or cells: CHO
The assay can be described thus: cell-based.

For another assay, the target named is T3, human Kv1.2 (Homo sapiens, UniProt P16389).
T3 construct: expressed in transfected cells; host or cells: CHO
The assay can be described thus: cell-based.

[1] abbreviates: IL-17A release, thapsigargin, 24 Hr, at least 2 replicates.
The mark [2] stands for this setting: ratio of patch clamp IC50 values.

Read-outs that look alike come from different tables or passages of the source. Where a SMILES comes first, the peptide text is derived from it. Bridges are numbered along the chain shown (N, C = ends). [ ]: non-standard residue; d: D form. Nle = CCCC[C@H](N)C(=O)O

Chain of Rat whole blood (P15384 whole entry): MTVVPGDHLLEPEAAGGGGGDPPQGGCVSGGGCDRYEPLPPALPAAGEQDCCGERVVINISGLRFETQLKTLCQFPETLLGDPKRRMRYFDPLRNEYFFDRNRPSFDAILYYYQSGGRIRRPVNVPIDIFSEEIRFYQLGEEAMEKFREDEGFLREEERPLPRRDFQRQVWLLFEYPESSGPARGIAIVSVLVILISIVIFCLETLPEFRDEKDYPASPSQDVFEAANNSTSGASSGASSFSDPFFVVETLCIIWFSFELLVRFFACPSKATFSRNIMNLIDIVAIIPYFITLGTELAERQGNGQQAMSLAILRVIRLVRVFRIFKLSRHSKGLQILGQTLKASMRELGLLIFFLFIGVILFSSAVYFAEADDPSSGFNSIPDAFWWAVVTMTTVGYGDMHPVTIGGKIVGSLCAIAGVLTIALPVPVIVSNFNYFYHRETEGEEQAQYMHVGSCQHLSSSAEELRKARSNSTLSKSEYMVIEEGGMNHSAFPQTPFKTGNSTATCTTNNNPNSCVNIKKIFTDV
T3 sequence (P16389 whole entry): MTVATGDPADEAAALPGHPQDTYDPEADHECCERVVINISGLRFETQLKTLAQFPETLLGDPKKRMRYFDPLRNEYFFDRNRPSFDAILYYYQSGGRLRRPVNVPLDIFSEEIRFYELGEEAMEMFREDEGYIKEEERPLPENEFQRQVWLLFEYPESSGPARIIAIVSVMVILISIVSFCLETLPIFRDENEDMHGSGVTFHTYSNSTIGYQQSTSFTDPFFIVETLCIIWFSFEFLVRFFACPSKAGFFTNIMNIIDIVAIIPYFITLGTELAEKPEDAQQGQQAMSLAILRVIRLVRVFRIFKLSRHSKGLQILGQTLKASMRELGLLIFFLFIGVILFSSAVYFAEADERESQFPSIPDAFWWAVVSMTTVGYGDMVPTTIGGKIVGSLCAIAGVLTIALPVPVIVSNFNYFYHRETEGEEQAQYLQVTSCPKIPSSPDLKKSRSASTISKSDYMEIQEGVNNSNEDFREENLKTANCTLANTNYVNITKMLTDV
T2 sequence (Q09470 whole entry): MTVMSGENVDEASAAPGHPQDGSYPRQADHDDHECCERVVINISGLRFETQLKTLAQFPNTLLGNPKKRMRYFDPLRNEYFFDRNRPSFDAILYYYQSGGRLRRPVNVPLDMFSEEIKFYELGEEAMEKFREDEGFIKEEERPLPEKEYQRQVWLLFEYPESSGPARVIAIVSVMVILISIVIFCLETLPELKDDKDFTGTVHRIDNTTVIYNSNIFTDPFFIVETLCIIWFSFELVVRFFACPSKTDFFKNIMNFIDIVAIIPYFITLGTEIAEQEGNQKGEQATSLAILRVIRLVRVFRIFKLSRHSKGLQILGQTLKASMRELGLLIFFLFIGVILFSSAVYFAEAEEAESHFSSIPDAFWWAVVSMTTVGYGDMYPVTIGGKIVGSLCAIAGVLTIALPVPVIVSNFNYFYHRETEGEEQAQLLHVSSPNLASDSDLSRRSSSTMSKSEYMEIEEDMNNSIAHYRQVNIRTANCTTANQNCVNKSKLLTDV
T1 sequence (P17658 whole entry): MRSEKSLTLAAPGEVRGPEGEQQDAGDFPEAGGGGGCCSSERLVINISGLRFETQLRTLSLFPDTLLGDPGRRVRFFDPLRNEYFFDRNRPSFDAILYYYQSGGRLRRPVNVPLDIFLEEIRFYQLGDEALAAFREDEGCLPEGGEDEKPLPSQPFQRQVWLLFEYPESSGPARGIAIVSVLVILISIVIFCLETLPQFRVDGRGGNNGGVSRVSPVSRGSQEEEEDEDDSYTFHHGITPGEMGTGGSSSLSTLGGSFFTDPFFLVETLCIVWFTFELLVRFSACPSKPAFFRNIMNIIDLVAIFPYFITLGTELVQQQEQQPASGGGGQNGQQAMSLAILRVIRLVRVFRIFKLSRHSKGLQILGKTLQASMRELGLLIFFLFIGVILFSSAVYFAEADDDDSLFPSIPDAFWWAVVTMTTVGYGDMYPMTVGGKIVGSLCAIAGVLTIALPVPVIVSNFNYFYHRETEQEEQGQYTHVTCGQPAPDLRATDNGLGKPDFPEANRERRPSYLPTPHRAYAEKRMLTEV

As usually defined, the IC50 is the point on the concentration scale where inhibition reaches its midpoint. Consider `CCCC[C@@H]1NC(=O)[C@@H]2CSSC[C@H](NC(=O)[C@H](CCCNC(=N)N)NC(=O)[C@H](CCCC)NC(=O)[C@H](CCC(=O)O)NC(=O)[C@@H](NC(=O)[C@@H]3CCCN3)[C@@H](C)CC)C(=O)N[C@@H](CO)C(=O)N[C@@H](C)C(=O)N[C@@H](CO)C(=O)N[C@@H](C(C)C)C(=O)N[C@@H](CCC(=O)O)C(=O)N[C@H]3CSSC[C@H](NC(=O)[C@H](CCCCN)NC(=O)[C@H](CCCCN)NC(=O)[C@H](CC(N)=O)NC1=O)C(=O)N[C@@H](CCCCN)C(=O)N[C@H](C(=O)N[C@@H](Cc1ccc(O)cc1)C(=O)N1CCC[C@H]1C(=O)N[C@@H](CCCNC(=N)N)C(=O)O)CSSC[C@H](NC(=O)[C@H](CCCCN)NC(=O)[C@H](CCC(N)=O)NC(=O)[C@H](CCCCN)NC3=O)C(=O)N[C@@H](CC(C)C)C(=O)N[C@@H](CCCCN)C(=O)N[C@@H](C)C(=O)N[C@@H]([C@@H](C)CC)C(=O)NCC(=O)N[C@@H](CO)C(=O)N[C@@H]([C@@H](C)CC)C(=O)N[C@@H](Cc1ccccc1)C(=O)NCC(=O)N[C@@H](CCCCN)C(=O)N2` [compound 92] (H-PIE[Nle]RCSASVECKQKCLKAIGSIFGKC[Nle]NKKCKCYPR-OH; disulfide 6-27, 12-32, 16-34), for which the IC50 against Rat whole blood stood at 1.8 nM. For the same compound, at human Kv1.6, the “Selectivity ratio Kv1.6/Kv1.3” value is over 7800. For the same compound, on human Kv1.1, the “Selectivity ratio Kv1.1/Kv1.3” value was over 7800. Moreover, the “Selectivity ratio Kv1.2/Kv1.3” value at human Kv1.2 came out at 4561.
Regarding `CCCC[C@@H]1NC(=O)[C@@H]2CSSC[C@H](N)C(=O)N[C@@H](CO)C(=O)N[C@@H](C)C(=O)N[C@@H](CO)C(=O)N[C@@H](C(C)C)C(=O)N[C@@H](CCC(=O)O)C(=O)N[C@H]3CSSC[C@H](NC(=O)[C@H](CCCCN)NC(=O)[C@H](CCCCN)NC(=O)[C@H](CC(N)=O)NC1=O)C(=O)N[C@@H](CCCCN)C(=O)N[C@H](C(=O)N[C@@H](Cc1ccc(O)cc1)C(=O)N1CCC[C@H]1C(=O)N[C@@H](CCCNC(=N)N)C(N)=O)CSSC[C@H](NC(=O)[C@H](CCCCN)NC(=O)[C@H](CCC(N)=O)NC(=O)[C@H](CCCCN)NC3=O)C(=O)N[C@@H](CC(C)C)C(=O)N[C@@H](CCCCN)C(=O)N[C@@H](C)C(=O)N[C@@H]([C@@H](C)CC)C(=O)NCC(=O)N[C@@H](CO)C(=O)N[C@@H]([C@@H](C)CC)C(=O)N[C@@H](Cc1ccccc1)C(=O)NCC(=O)N[C@@H](CCCCN)C(=O)N2` [compound 98] (H-CSASVECKQKCLKAIGSIFGKC[Nle]NKKCKCYPR-NH2; disulfide 1-22, 7-27, 11-29), the IC50 on Rat whole blood (setting [1]) worked out at 1.6 nM. Moreover, the “Selectivity ratio Kv1.6/Kv1.3” value on human Kv1.6 (setting [2]) is over 7000. Besides, at human Kv1.1 (setting [2]), the “Selectivity ratio Kv1.1/Kv1.3” value is over 7000. The “Selectivity ratio Kv1.2/Kv1.3” value at human Kv1.2 (setting [2]) is reported as over 7000.
`CCCC[C@@H]1NC(=O)[C@@H]2CSSC[C@H](NC(C)=O)C(=O)N[C@@H](CO)C(=O)N[C@@H](C)C(=O)N[C@@H](CO)C(=O)N[C@@H](C(C)C)C(=O)N[C@@H](CCC(=O)O)C(=O)N[C@H]3CSSC[C@H](NC(=O)[C@H](CCCCN)NC(=O)[C@H](CCCCN)NC(=O)[C@H](CC(N)=O)NC1=O)C(=O)N[C@@H](CCCCN)C(=O)N[C@H](C(=O)N[C@@H](Cc1ccc(O)cc1)C(=O)N1CCC[C@H]1C(=O)N[C@@H](CCCNC(=N)N)C(N)=O)CSSC[C@H](NC(=O)[C@H](CCCCN)NC(=O)[C@H](CCC(N)=O)NC(=O)[C@H](CCCCN)NC3=O)C(=O)N[C@@H](CC(C)C)C(=O)N[C@@H](CCCCN)C(=O)N[C@@H](C)C(=O)N[C@@H]([C@@H](C)CC)C(=O)NCC(=O)N[C@@H](CO)C(=O)N[C@@H]([C@@H](C)CC)C(=O)N[C@@H](Cc1ccccc1)C(=O)NCC(=O)N[C@@H](CCCCN)C(=O)N2` [compound 99] (Ac-CSASVECKQKCLKAIGSIFGKC[Nle]NKKCKCYPR-NH2; disulfide 1-22, 7-27, 11-29) registered an IC50 against Rat whole blood (setting [1]) of 0.88 nM. In addition, the “Selectivity ratio Kv1.6/Kv1.3” value on human Kv1.6 (setting [2]) is recorded as over 12400. Moreover, the “Selectivity ratio Kv1.1/Kv1.3” value at human Kv1.1 (setting [2]) was over 12400. Besides, the “Selectivity ratio Kv1.2/Kv1.3” value on human Kv1.2 (setting [2]) was determined as 1591.
The compound `CCCC[C@@H]1NC(=O)[C@@H]2CSSC[C@H](NC(=O)[C@@H](N)CCCNC(=N)N)C(=O)N[C@@H](CO)C(=O)N[C@@H](C)C(=O)N[C@@H](CO)C(=O)N[C@@H](C(C)C)C(=O)N[C@@H](CCC(=O)O)C(=O)N[C@H]3CSSC[C@H](NC(=O)[C@H](CCCCN)NC(=O)[C@H](CCCCN)NC(=O)[C@H](CC(N)=O)NC1=O)C(=O)N[C@@H](CCCCN)C(=O)N[C@H](C(=O)N[C@@H](Cc1ccc(O)cc1)C(=O)N1CCC[C@H]1C(=O)N[C@@H](CCCNC(=N)N)C(N)=O)CSSC[C@H](NC(=O)[C@H](CCCCN)NC(=O)[C@H](CCC(N)=O)NC(=O)[C@H](CCCCN)NC3=O)C(=O)N[C@@H](CC(C)C)C(=O)N[C@@H](CCCCN)C(=O)N[C@@H](C)C(=O)N[C@@H]([C@@H](C)CC)C(=O)NCC(=O)N[C@@H](CO)C(=O)N[C@@H]([C@@H](C)CC)C(=O)N[C@@H](Cc1ccccc1)C(=O)NCC(=O)N[C@@H](CCCCN)C(=O)N2` [compound 100] (H-RCSASVECKQKCLKAIGSIFGKC[Nle]NKKCKCYPR-NH2; disulfide 2-23, 8-28, 12-30) gave an IC50 on Rat whole blood (setting [1]) of 0.52 nM. Moreover, the “Selectivity ratio Kv1.6/Kv1.3” value at human Kv1.6 (setting [2]) was 3290. On human Kv1.1 (setting [2]), the “Selectivity ratio Kv1.1/Kv1.3” value is recorded as over 7600. For the same compound, the “Selectivity ratio Kv1.2/Kv1.3” value at human Kv1.2 (setting [2]) was found to be 708.
Regarding `CCCC[C@@H]1NC(=O)[C@@H]2CSSC[C@H](NC(=O)[C@H](CCCCN)NC(=O)[C@H](CO)NC(C)=O)C(=O)N[C@@H](CO)C(=O)N[C@@H](C)C(=O)N[C@@H](CO)C(=O)N[C@@H](C(C)C)C(=O)N[C@@H](CCC(=O)O)C(=O)N[C@H]3CSSC[C@H](NC(=O)[C@H](CCCCN)NC(=O)[C@H](CCCCN)NC(=O)[C@H](CC(N)=O)NC1=O)C(=O)N[C@@H](CCCCN)C(=O)N[C@H](C(=O)N[C@@H](Cc1ccc(O)cc1)C(=O)N1CCC[C@H]1C(=O)N[C@@H](CCCNC(=N)N)C(N)=O)CSSC[C@H](NC(=O)[C@H](CCCCN)NC(=O)[C@H](CCC(N)=O)NC(=O)[C@H](CCCCN)NC3=O)C(=O)N[C@@H](CC(C)C)C(=O)N[C@@H](CCCCN)C(=O)N[C@@H](C)C(=O)N[C@@H]([C@@H](C)CC)C(=O)NCC(=O)N[C@@H](CO)C(=O)N[C@@H]([C@@H](C)CC)C(=O)N[C@@H](Cc1ccccc1)C(=O)NCC(=O)N[C@@H](CCCCN)C(=O)N2` [compound 101] (Ac-SKCSASVECKQKCLKAIGSIFGKC[Nle]NKKCKCYPR-NH2; disulfide 3-24, 9-29, 13-31), at Rat whole blood (setting [1]), the half-maximal inhibitory concentration (IC50) came to 0.36 nM. Also, the “Selectivity ratio Kv1.6/Kv1.3” value on human Kv1.6 (setting [2]) is 1451. In addition, the “Selectivity ratio Kv1.1/Kv1.3” value on human Kv1.1 (setting [2]) is listed as over 3000. Besides, on human Kv1.2 (setting [2]), the “Selectivity ratio Kv1.2/Kv1.3” value is 196.
Compound `CCCC[C@@H]1NC(=O)[C@@H]2CSSC[C@H](NC(=O)[C@H](CCCNC(=N)N)NC(=O)[C@H](CC(C)C)NC(C)=O)C(=O)N[C@@H](CO)C(=O)N[C@@H](C)C(=O)N[C@@H](CO)C(=O)N[C@@H](C(C)C)C(=O)N[C@@H](CCC(=O)O)C(=O)N[C@H]3CSSC[C@H](NC(=O)[C@H](CCCCN)NC(=O)[C@H](CCCCN)NC(=O)[C@H](CC(N)=O)NC1=O)C(=O)N[C@@H](CCCCN)C(=O)N[C@H](C(=O)N[C@@H](Cc1ccc(O)cc1)C(=O)N1CCC[C@H]1C(=O)N[C@@H](CCCNC(=N)N)C(N)=O)CSSC[C@H](NC(=O)[C@H](CCCCN)NC(=O)[C@H](CCC(N)=O)NC(=O)[C@H](CCCCN)NC3=O)C(=O)N[C@@H](CC(C)C)C(=O)N[C@@H](CCCCN)C(=O)N[C@@H](C)C(=O)N[C@@H]([C@@H](C)CC)C(=O)NCC(=O)N[C@@H](CO)C(=O)N[C@@H]([C@@H](C)CC)C(=O)N[C@@H](Cc1ccccc1)C(=O)NCC(=O)N[C@@H](CCCCN)C(=O)N2` [compound 102] (Ac-LRCSASVECKQKCLKAIGSIFGKC[Nle]NKKCKCYPR-NH2; disulfide 3-24, 9-29, 13-31) showed an IC50 against Rat whole blood (setting [1]) of 0.37 nM. The “Selectivity ratio Kv1.6/Kv1.3” value at human Kv1.6 (setting [2]) is 7096. Also, the “Selectivity ratio Kv1.1/Kv1.3” value on human Kv1.1 (setting [2]) was over 8700. Moreover, the “Selectivity ratio Kv1.2/Kv1.3” value at human Kv1.2 (setting [2]) is 352.
The like results for `CC[C@H](C)[C@@H]1NC(=O)[C@H](C)NC(=O)[C@H](CCCCN)NC(=O)[C@H](CC(C)C)NC(=O)[C@@H]2CSSC[C@@H](C(=O)N[C@@H](Cc3ccc(O)cc3)C(=O)N3CCC[C@H]3C(=O)N[C@@H](CCCNC(=N)N)C(=O)O)NC(=O)[C@H](CCCCN)NC(=O)[C@@H]3CSSC[C@H](NC(=O)[C@H](CCC(=O)O)NC(=O)[C@H](C(C)C)NC(=O)[C@H](CO)NC(=O)[C@H](C)NC(=O)[C@H](CO)NC(=O)[C@@H](N)CSSC[C@H](NC(=O)[C@H](CCCCN)NC(=O)CNC(=O)[C@H](Cc4ccccc4)NC(=O)[C@H]([C@@H](C)CC)NC(=O)[C@H](CO)NC(=O)CNC1=O)C(=O)N[C@@H](CCSC)C(=O)N[C@@H](CC(N)=O)C(=O)N[C@@H](CCCCN)C(=O)N[C@@H](CCCCN)C(=O)N3)C(=O)N[C@@H](CCCCN)C(=O)N[C@@H](CCC(N)=O)C(=O)N[C@@H](CCCCN)C(=O)N2` [compound 106] (H-CSASVECKQKCLKAIGSIFGKCMNKKCKCYPR-OH; disulfide 1-22, 7-27, 11-29) were, in that order, 1.9 nM, over 1400, over 1400 and 878.
